# Data as given in paper PMC11456916, “A screen for cell envelope stress uncovers an inhibitor of prolipoprotein diacylglyceryl transferase, Lgt, in Escherichiacoli” (iScience, 2024).
# Legend:
# Format in all cases: cell-based
# E. coli ΔtolC-pore [1] = experiment: MIC assay, E. coli ΔtolC-pore
# Method: For MIC assays, cultures of bacteria were grown in LB broth. Overnight cultures were diluted (1:100) into fresh LB media and grown to the mid-log phase of growth (OD600 ∼0.5). Subcultures were then normalized to an OD600 of 0.1, and diluted (1:5000) into assay media. Assay plates were then incubated for 18 h at 37°C, then OD600 was measured using a Biotek Neo plate reader.
# E. coli ΔtolC-pore [2] = experiment: Time-kill assay
# Description: As Lgt is found at the inner membrane of Gram-negative bacteria, we sought to rule out physical perturbation of the membrane as the cause of the antibacterial activity observed for MAC-0452936. […] To that end, we treated both non-growing E. coli ΔtolC-pore in a nutrient-deplete medium (PBS) and actively growing E. coli ΔtolC-pore in a nutrient-replete medium (LB) with varying concentrations of MAC-0452936 and enumerated colony-forming units (CFUs) at different time points (Figure S9A). […] Indeed, MAC-0452936 reduced the bacterial counts of E. coli ΔtolC-pore to the limit of detection after 6 h at compound concentrations greater than 2 μg/mL. We then tested MAC-0452936 for hemolytic activity against human-derived red blood cells and cytotoxicity against HEK-293 cells. […] However, we did observe a modest decrease in the viability of HEK-293 cells when treated with concentrations of MAC-0452936 greater than 8 μg/mL.
# E. coli ΔtolC-pore was grown overnight in LB broth. For killing in nutrient-deplete media, overnight culture was pelleted by centrifugation at 5,000g for 30 min, and resuspended in sterile PBS buffer. Cells in PBS were added to a microwell plate containing different concentrations of MAC-0452936 (100 μL final volume), and incubated for the specified time at 37°C with shaking. At the specified time points, cultures were pelleted by centrifugation 5,000g for 30 min at 4°C, then 10-fold serially diluted in PBS before being plated on LB agar for CFU enumeration. For killing of actively growing cells in nutrient replete media, overnight culture of E. coli ΔtolC-pore was diluted 1/1000 into fresh LB broth and grown at 37°C with shaking to the early-log phase of growth (∼2.5 h, OD600 ∼0.2). Cells in LB broth were then added to a microwell plate containing different concentrations of MAC-0452936 (100 μL final volume), and incubated for the specified time at 37°C with shaking. At the specified time points, cultures were pelleted by centrifugation 5,000g for 30 min at 4°C, then 10-fold serially diluted in PBS before being plated on LB agar for CFU enumeration.
# E. coli ΔtolC-pore [3] = experiment: Live cell fluorescence microscopy, cell width; conditions: increasing concentrations, 1 h, DAPI and FM4-64 stain
# Method: Figure 4 MAC-0452936 inhibited prolipoprotein diacylglyceryl transferase, Lgt (A) Growth inhibition of E. coli ΔtolC-pore, three independent MAC-0452936 resistance mutants with a V109A substitution in Lgt (2,959,071A→G), a mutant with an A37T substitution (2,959,288C→T), and a mutant with a G138A substitution (2,958,984C→G). The experiment was conducted in biological triplicate. Data are represented as mean ± SEM. (B) Structure of Lgt from E. coli with two phosphatidyl-glycerol (PG) moieties bound (PDB: 5AZB).[49] Mutated residues from spontaneous resistance mutants are highlighted in blue on proximal α-helices, with the blue sphere highlighting the space in between the mutated residues where both PG moieties reside. […] The width of at least 240 cells was measured at each MAC-0452936 concentration, with specific n values for each concentration of MAC-0452936 listed in the figure. […]
# An overnight culture of E. coli ΔtolC-pore was prepared, then diluted (1:100) into fresh LB media and grown to the mid-exponential phase of growth (OD600 ∼0.5). […] Samples were imaged using a Nikon Eclipse Ti inverted microscope at 100× magnification, with a minimum of 200 cells counted per image. Images were quantified with ImageJ, using the following macro. […]
compound,measurement,setting,value
"COc1ccc(C(=O)O/N=C(\c2cccs2)C(C)(C)C)cc1 [MAC-0452936, (Z)-2-Pivaloylthiophene O-(4-methoxybenzoyl) oxime]","MIC, E. coli ΔtolC-pore","E. coli ΔtolC-pore [1]; LB, 18 h",0.5 µg/mL
same,activity against E. coli ΔtolC-pore,"E. coli ΔtolC-pore [1]; growth inhibition, in words",active
same,compound concentrations that reduced bacterial counts to the limit of detection,"E. coli ΔtolC-pore [2]; LB, after 6 h",greater than 2 μg/mL
same,killing of non-growing bacteria,"E. coli ΔtolC-pore [2]; nutrient-deplete medium (PBS), CFU",could not kill non-growing bacteria
same,killing of actively growing bacteria,"E. coli ΔtolC-pore [2]; nutrient-replete medium (LB), CFU",potent bactericidal activity
same,effect on cell width and morphology,E. coli ΔtolC-pore [3],dose-dependent increase in cell width
